Measured values from patent publication US20060166933A1, “Novel 2H-chromene derivatives as selective estrogen receptor modulators” (priority 2004, published 2006).

What was measured:
[1] = biological target: T1, human estrogen receptor α (Homo sapiens, UniProt P03372); assay: Estrogen Receptor α Flash Plate Assay (binding of radiolabeled estrogen); settings: radiolabeled estrogen 0.5 nM, FlashPlate, 1 h room temperature; read-out: ER-α Binding
T1 construct: purchased Panvera
T1 sequence (P03372 1-595): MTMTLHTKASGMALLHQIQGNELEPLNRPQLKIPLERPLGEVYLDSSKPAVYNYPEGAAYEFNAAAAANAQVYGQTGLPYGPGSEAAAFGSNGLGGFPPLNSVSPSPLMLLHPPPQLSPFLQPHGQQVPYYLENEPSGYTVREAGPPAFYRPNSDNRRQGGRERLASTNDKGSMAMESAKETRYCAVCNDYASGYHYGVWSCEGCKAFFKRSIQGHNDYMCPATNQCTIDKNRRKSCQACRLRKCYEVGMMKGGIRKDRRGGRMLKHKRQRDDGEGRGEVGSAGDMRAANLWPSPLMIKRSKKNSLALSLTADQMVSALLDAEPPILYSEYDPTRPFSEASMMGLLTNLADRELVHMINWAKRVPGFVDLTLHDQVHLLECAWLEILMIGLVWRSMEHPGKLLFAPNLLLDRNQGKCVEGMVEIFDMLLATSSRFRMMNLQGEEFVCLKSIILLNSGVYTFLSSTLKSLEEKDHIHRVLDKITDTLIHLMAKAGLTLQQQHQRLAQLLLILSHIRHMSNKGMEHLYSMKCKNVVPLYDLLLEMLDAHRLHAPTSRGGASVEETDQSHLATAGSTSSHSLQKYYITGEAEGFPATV
Protocol: Estrogen Receptor α Flash Plate Assay
This assay monitors binding of radiolabeled estrogen to the estrogen receptor. It is performed on a BioMek 2000 (Beckman). Plates are read in a scintillation counter (Packard TopCount), with decreased counts an indication of binding of a compound to the receptor. The assay was run according to the procedure described by Allan, et al., Anal. Biochem. (1999), 275(2), 243-247.
On day one, 100 μL of Estrogen Screening Buffer (ESB, Panvera) containing 5 mM dithiothreitol (DTT, Panvera), 0.5 μg mouse anti-estrogen receptor monoclonal antibody (SRA-1010, Stressgen) and 50 ng purified human estrogen receptor a (Panvera) were added to each well of a 96 well FlashPlate Plus plate crosslinked with goat anti-mouse antibodies (NEN Life Sciences). The plate was sealed and incubated at 4° C. overnight.
On day two, each well was washed three times with 200 μL PBS, pH 7.2, at room temperature. To each well was then added 98 μL radiolabeled estrogen (0.5 nM, which equals 6 nCi for a 120 Ci/mmol batch, Amersham), diluted in ESB and 5 mM dithiothreitol (DTT). To individual wells were then added 2.5 μL test compound diluted in 30% (v/v) dimethyl sulfoxide/50 mM HEPES, pH 7.5. The wells were mixed three times by aspiration, the plate sealed and incubated at room temperature for one hour. The wells were then counted for 1 min in a TopCount scintillation counter (Packard).
(§1) Representative compounds of the present invention were tested according to the procedures described in Examples 23-24, above for binding to the estrogen-α and estrogen-β receptors, with results as listed in Table 2, below.

[2] = biological target: T2, hER-β (Homo sapiens, UniProt Q92731); assay: Estrogen Receptor β Fluorescence Polarization Assay (Fluormone ES2 displacement); settings: Fluormone ES2, 1 h room temperature, read-out: ER β-Binding
T2 construct: purchased Panvera
T2 sequence (Q92731 whole entry): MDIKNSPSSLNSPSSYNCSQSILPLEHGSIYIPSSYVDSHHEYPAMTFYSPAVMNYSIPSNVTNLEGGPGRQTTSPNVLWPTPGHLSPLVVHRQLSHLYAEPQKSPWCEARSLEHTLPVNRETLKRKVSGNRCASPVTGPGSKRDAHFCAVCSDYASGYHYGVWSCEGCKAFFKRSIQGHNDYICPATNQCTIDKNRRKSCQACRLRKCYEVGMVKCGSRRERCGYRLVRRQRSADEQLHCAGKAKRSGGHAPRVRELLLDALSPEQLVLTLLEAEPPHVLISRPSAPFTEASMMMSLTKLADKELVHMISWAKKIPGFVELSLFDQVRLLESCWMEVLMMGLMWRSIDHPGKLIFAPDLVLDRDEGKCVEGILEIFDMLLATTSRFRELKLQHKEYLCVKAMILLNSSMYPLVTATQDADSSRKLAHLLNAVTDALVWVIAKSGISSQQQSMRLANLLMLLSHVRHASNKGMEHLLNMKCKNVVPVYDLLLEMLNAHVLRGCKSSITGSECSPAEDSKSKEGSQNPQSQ
Description: Estrogen Receptor β Fluorescence Polarization Assay
This assay monitors binding of a fluorescent analog of estrogen (Fluormone ES2, Panvera) to the estrogen receptor. Plates are read in a fluorometer that can be set to polarization mode. A decrease in […] relative to vehicle control is an indication of binding of a compound to the receptor.
It is crucial to avoid introduction of air bubbles into the reaction in each well of the 96 well plate throughout this procedure. (Bubbles on the surface of the reaction disrupt light flow, affecting the polarization reading.) However, it is also crucial to effectively mix the reaction components upon addition to the well.
On ice, a 2× standard mixture of Assay Buffer (Panvera), 10 nM DTT and 40 nM ES2 was prepared. On ice, a 2× reaction mixture of Assay Buffer (Panvera), and 20 nM hER-β (Panvera) and 40 nM ES2 was also prepared.
Dilutions of test compound were prepared in 30% (v/v) dimethyl sulfoxide/50 mM HEPES, pH 7.5. At this point, the dilutions were 40× the final required concentration.
The standard mixture at 50 μL was then added to each well. The reaction mixture at 48 μL was added to all wells. The compound dilution at 2.5 μL was added to the appropriate wells. The reaction mixtures were mixed using a manual pipette, a roll of aluminum foil adhesive cover was placed on the plate and the plate incubated at room temperature for 1 hour.
Each well on the plate was then read in an LjL Analyst with an excitation wavelength of […] and an emission wavelength of 538.
as §1

Compound | IC50 [1] [µM] | IC50 [2] [µM]
Oc1ccc2c(c1)OC(c1ccc(OCCN3CCCCC3)cc1)C1=C2CCCCC1 (stereo not drawn) [compound 9] | 0.059 | 0.69
CC1=C(COCC[Si](C)(C)C)[C@H](c2ccc(OCCN3CCCCC3)cc2)Oc2cc(O)ccc21 (single isomer, unassigned) [compound 3] | 0.18 | > 10
Oc1ccc2c(c1)OC(c1ccc(OCCN3CCCCC3)cc1)C=C2C1CCCC1 (stereo not drawn) [compound 10] | 0.18 | 0.5
OCCC1=CC(c2ccc(OCCN3CCCCC3)cc2)Oc2cc(O)ccc21 (stereo not drawn) [compound 6] | > 10 | > 10
4-(2-Hydroxy-ethyl)-2-[4-(2-piperidin-1-yl-ethoxy)-phenyl]-2H-chromen-7-ol [ID No. 6] | 0.5 | 0.5
4-Methyl-2-[4-(2-piperidin-1-yl-ethoxy)-phenyl]-2-H-chromen-7-ol [ID No. 4] | 2.2 | > 10
